Measured values reported in ChEMBL document CHEMBL4145553, “Design, synthesis, and biological evaluation of novel amide and hydrazide based thioether analogs targeting Histone deacteylase (HDAC) enzymes” (Eur J Med Chem, 2018).
Calls of active or inactive are those of the source. The rule behind the calls is not given here.

Key:
[1] = tested on: HCC 2998; assay: Growth inhibition of human HCC2998 cells assessed as cell growth at 10^-7 M incubated for 48 hrs by sulforhodamine B assay relative to control; assay type: functional; conditions: HCC 2998, 48 h, read-out: Activity
[2] = tested on: SNB-75; assay: Growth inhibition of human SNB75 cells assessed as cell growth at 10^-8 M incubated for 48 hrs by sulforhodamine B assay relative to control; assay type: functional; conditions: SNB-75, 48 h, read-out: Activity
[3] = tested on: NCI-H322M; assay: Growth inhibition of human NCI-H322M cells assessed as cell growth at 10^-4 M incubated for 48 hrs by sulforhodamine B assay relative to control; assay type: functional; conditions: read-out: Activity
[4] = tested on: HCC 2998; assay: Growth inhibition of human HCC2998 cells assessed as cell growth at 10^-4 M incubated for 48 hrs by sulforhodamine B assay relative to control; assay type: functional; conditions: HCC 2998, 48 h, read-out: Activity
[5] = tested on: MCF7; assay: Growth inhibition of human MCF7 cells assessed as cell growth at 10^-7 M incubated for 48 hrs by sulforhodamine B assay relative to control; assay type: functional; conditions: MCF7, 48 h, read-out: Activity
[6] = tested on: HCC 2998; assay: Growth inhibition of human HCC2998 cells assessed as cell growth at 10^-5 M incubated for 48 hrs by sulforhodamine B assay relative to control; assay type: functional; conditions: HCC 2998, 48 h, read-out: Activity
[7] = tested on: MOLT-4; assay: Growth inhibition of human MOLT4 cells assessed as cell growth at 10^-4 M incubated for 48 hrs by sulforhodamine B assay relative to control; assay type: functional; conditions: MOLT-4, 48 h, read-out: Activity
[8] = tested on: IGROV-1; assay: Growth inhibition of human IGROV1 cells assessed as cell growth at 10^-7 M incubated for 48 hrs by sulforhodamine B assay relative to control; assay type: functional; conditions: IGROV-1, 48 h, read-out: Activity
[9] = tested on: HL-60; assay: Cell cycle arrest in human HL60 cells assessed as accumulation at G1-phase by propidium iodide staining based flow cytometry (reference value: 67.27%); assay type: functional
[10] = tested on: HCC 2998; assay: Growth inhibition of human HCC2998 cells assessed as cell growth at 10^-8 M incubated for 48 hrs by sulforhodamine B assay relative to control; assay type: functional; conditions: HCC 2998, 48 h, read-out: Activity
[11] = tested on: HT-29; assay: Growth inhibition of human HT-29 cells assessed as cell growth at 10^-8 M incubated for 48 hrs by sulforhodamine B assay relative to control; assay type: functional; conditions: HT-29, 48 h, read-out: Activity
[12] = tested on: SR; assay: Growth inhibition of human SR cells assessed as cell growth at 10^-4 M incubated for 48 hrs by sulforhodamine B assay relative to control; assay type: functional; conditions: read-out: Activity
[13] = tested on: MDA-MB-468; assay: Growth inhibition of human MDA-MB-468 cells assessed as cell growth at 10^-6 M incubated for 48 hrs by sulforhodamine B assay relative to control; assay type: functional; conditions: MDA-MB-468, 48 h, read-out: Activity
[14] = tested on: Hs-578T; assay: Growth inhibition of human Hs 578T cells assessed as cell growth at 10^-7 M incubated for 48 hrs by sulforhodamine B assay relative to control; assay type: functional; conditions: read-out: Activity
[15] = tested on: MDA-MB-435; assay: Downregulation of HDAC3 mRNA expression in human MDA-MB-435 cells by qRT-PCR method; assay type: functional, cell-based
[16] = tested on: UACC-62; assay: Growth inhibition of human UACC62 cells assessed as cell growth at 10^-5 M incubated for 48 hrs by sulforhodamine B assay relative to control; assay type: functional; conditions: UACC-62, 48 h, read-out: Activity
[17] = tested on: HOP-62; assay: Growth inhibition of human HOP62 cells incubated for 48 hrs by sulforhodamine B assay; assay type: functional; conditions: HOP-62, 48 h
[18] = tested on: SK-MEL-28; assay: Growth inhibition of human SK-MEL-28 cells assessed as cell growth at 10^-5 M incubated for 48 hrs by sulforhodamine B assay relative to control; assay type: functional; conditions: SK-MEL-28, 48 h, read-out: Activity
[19] = tested on: KM12; assay: Growth inhibition of human KM12 cells assessed as cell growth at 10^-7 M incubated for 48 hrs by sulforhodamine B assay relative to control; assay type: functional; conditions: KM12, 48 h, read-out: Activity
[20] = tested on: SF-268; assay: Growth inhibition of human SF268 cells assessed as cell growth at 10^-4 M incubated for 48 hrs by sulforhodamine B assay relative to control; assay type: functional; conditions: SF-268, 48 h, read-out: Activity
[21] = tested on: EKVX; assay: Growth inhibition of human EKVX cells incubated for 48 hrs by sulforhodamine B assay; assay type: functional
[22] = tested on: OVCAR-4; assay: Growth inhibition of human OVCAR4 cells assessed as cell growth at 10^-8 M incubated for 48 hrs by sulforhodamine B assay relative to control; assay type: functional; conditions: OVCAR-4, 48 h, read-out: Activity
[23] = tested on: HL-60; assay: Induction of apoptosis in human HL60 cells assessed as early apoptotic cells by propidium iodide/Annexin V staining based flow cytometry (reference value: 0.37%); assay type: functional
[24] = tested on: MDA-MB-435; assay: Growth inhibition of human MDA-MB-435 cells incubated for 48 hrs by sulforhodamine B assay; assay type: functional; conditions: MDA-MB-435, 48 h
[25] = tested on: A498; assay: Growth inhibition of human A498 cells assessed as cell growth at 10^-6 M incubated for 48 hrs by sulforhodamine B assay relative to control; assay type: functional; conditions: A498, 48 h, read-out: Activity
[26] = tested on: HCC 2998; assay: Growth inhibition of human HCC2998 cells assessed as cell growth at 10^-6 M incubated for 48 hrs by sulforhodamine B assay relative to control; assay type: functional; conditions: HCC 2998, 48 h, read-out: Activity
[27] = tested on: U-251; assay: Growth inhibition of human U251 cells assessed as cell growth at 10^-5 M incubated for 48 hrs by sulforhodamine B assay relative to control; assay type: functional; conditions: U-251, 48 h, read-out: Activity
[28] = tested on: RPMI-8226; assay: Growth inhibition of human RPMI8226 cells assessed as cell growth at 10^-7 M incubated for 48 hrs by sulforhodamine B assay relative to control; assay type: functional; conditions: RPMI-8226, 48 h, read-out: Activity
[29] = tested on: RPMI-8226; assay: Growth inhibition of human RPMI8226 cells assessed as cell growth at 10^-8 M incubated for 48 hrs by sulforhodamine B assay relative to control; assay type: functional; conditions: RPMI-8226, 48 h, read-out: Activity
[30] = tested on: SNB-19; assay: Growth inhibition of human SNB19 cells assessed as cell growth at 10^-4 M incubated for 48 hrs by sulforhodamine B assay relative to control; assay type: functional; conditions: SNB-19, 48 h, read-out: Activity
[31] = tested on: 786-0; assay: Growth inhibition of human 786-0 cells assessed as cell growth at 10^-7 M incubated for 48 hrs by sulforhodamine B assay relative to control; assay type: functional; conditions: 786-0, 48 h, read-out: Activity
[32] = tested on: HL-60; assay: Induction of apoptosis in human HL60 cells assessed as increase in gammaH2ax expression by qRT-PCR method; assay type: functional, cell-based
[33] = tested on: CCRF-CEM; assay: Growth inhibition of human CCRF-CEM cells assessed as cell growth at 10^-4 M incubated for 48 hrs by sulforhodamine B assay relative to control; assay type: functional; conditions: read-out: Activity
[34] = read-out: LC50 (the source's name)
[35] = read-out: pLC50 (the source's name) (converted)

SMILES: CCS/C(Nc1ccccc1)=C(\C#N)C(=O)Nc1ccc(OC)cc1
- growth at 0.1 µM [1]: 92%
- growth at 0.01 µM [2]: 94%
- growth at 100 µM [3]: 37%
- growth at 100 µM [4]: 7%
- growth at 0.1 µM [5]: 93%
- growth at 10 µM [6]: 41%
- growth at 100 µM [7]: 18%
- growth at 0.1 µM [8]: 101%
- Activity [9]: 54.11%
- growth at 0.01 µM [10]: 102%
- growth at 0.01 µM [11]: 109%
- growth at 100 µM [12]: 16%
- growth at 1 µM [13]: 60%
- growth at 0.1 µM [14]: 96%
- Activity [15]: Active
- growth at 10 µM [16]: 21%
- GI50 ([17]; read-out: GI50): 5.62 µM
- CC50 [17, 34]: > 100 µM
- TGI ([17]; read-out: TGI): > 100 µM
- GI50 ([17]; read-out: pGI50 (converted)): 5.62 µM
- CC50 [17, 35]: > 100 µM
- TGI ([17]; read-out: pTGI): > 100 µM
- growth at 10 µM [18]: 53%
- growth at 0.1 µM [19]: 98%
- growth at 100 µM [20]: 11%
- GI50 ([21]; read-out: GI50): 4.42 µM
- CC50 [21, 34]: > 100 µM
- TGI ([21]; read-out: TGI): > 100 µM
- GI50 ([21]; read-out: pGI50 (converted)): 4.47 µM
- CC50 [21, 35]: > 100 µM
- TGI ([21]; read-out: pTGI): > 100 µM
- growth at 0.01 µM [22]: 104%
- Activity [23]: 4.89%
- GI50 ([24]; read-out: GI50): 0.37 µM
- CC50 [24, 34]: > 100 µM
- TGI ([24]; read-out: TGI): 1.89 µM
- GI50 ([24]; read-out: pGI50 (converted)): 0.372 µM
- CC50 [24, 35]: > 100 µM
- TGI ([24]; read-out: pTGI (converted)): 1.91 µM
- growth at 1 µM [25]: 78%
- growth at 1 µM [26]: 91%
- growth at 10 µM [27]: 26%
- growth at 0.1 µM [28]: 89%
- growth at 0.01 µM [29]: 94%
- growth at 100 µM [30]: 14%
- growth at 0.1 µM [31]: 86%
- Activity [32]: Active
- growth at 100 µM [33]: 7%

SMILES: CCS/C(Nc1ccccc1)=C(\C#N)C(=O)N/N=C\c1ccc(Cl)cc1Cl
- growth at 0.1 µM [1]: 100%
- growth at 0.01 µM [2]: 88%
- growth at 100 µM [3]: 32%
- growth at 100 µM [4]: 35%
- growth at 0.1 µM [5]: 89%
- growth at 10 µM [6]: 33%
- growth at 100 µM [7]: 19%
- growth at 0.1 µM [8]: 98%
- Activity [9]: 46.38%
- growth at 0.01 µM [10]: 101%
- growth at 0.01 µM [11]: 105%
- growth at 100 µM [12]: 7%
- growth at 1 µM [13]: 88%
- growth at 0.1 µM [14]: 92%
- Activity [15]: Active
- growth at 10 µM [16]: 26%
- GI50 ([17]; read-out: GI50): 3.66 µM
- CC50 [17, 34]: > 100 µM
- TGI ([17]; read-out: TGI): > 100 µM
- GI50 ([17]; read-out: pGI50 (converted)): 3.63 µM
- CC50 [17, 35]: > 100 µM
- TGI ([17]; read-out: pTGI): > 100 µM
- growth at 10 µM [18]: 53%
- growth at 0.1 µM [19]: 101%
- growth at 100 µM [20]: 27%
- GI50 ([21]; read-out: GI50): 5.09 µM
- CC50 [21, 34]: > 100 µM
- TGI ([21]; read-out: TGI): > 100 µM
- GI50 ([21]; read-out: pGI50 (converted)): 5.13 µM
- CC50 [21, 35]: > 100 µM
- TGI ([21]; read-out: pTGI): > 100 µM
- growth at 0.01 µM [22]: 98%
- Activity [23]: 7.69%
- GI50 ([24]; read-out: GI50): 0.419 µM
- CC50 [24, 34]: 9.26 µM
- TGI ([24]; read-out: TGI): 2.23 µM
- GI50 ([24]; read-out: pGI50 (converted)): 0.417 µM
- CC50 [24, 35]: 9.33 µM
- TGI ([24]; read-out: pTGI (converted)): 2.24 µM
- growth at 1 µM [25]: 68%
- growth at 1 µM [26]: 99%
- growth at 10 µM [27]: 20%
- growth at 0.1 µM [28]: 94%
- growth at 0.01 µM [29]: 101%
- growth at 100 µM [30]: 21%
- growth at 0.1 µM [31]: 88%
- Activity [32]: Active
- growth at 100 µM [33]: 11%
